What was measured:
CDK1/cyclin B = CDK1/cyclin B (Homo sapiens, UniProt P06493); assay: Kinase assay, radioactive phosphate incorporation, CDK1/cyclin B; format: biochemical; details: 100 μM ATP, 30° C.; read-out: Kinase inhibition IC50 CDK1/cyclin B
How it was run: (§1)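 Steps: enzyme (2-4 μg) plus substrate in pH 7.4 buffer with DTT and vanadate; start with 100 μM ATP/15 mM MgCl2 containing [γ-32P]-ATP; incubate at 30° C; stop on ice; filter, wash with 75 mM orthophosphoric acid; scintillation count. Compounds diluted from DMSO stocks into 10% DMSO buffer.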

CDK7/cyclin H = CDK7/cyclin H (Homo sapiens, UniProt P50613); assay: Kinase assay, radioactive phosphate incorporation, CDK7/cyclin H; format: biochemical; details: 100 μM ATP, 30° C.; read-out: Kinase inhibition IC50 CDK7/cyclin H
CDK7/cyclin H, sequence (P50613 whole entry, species assumed): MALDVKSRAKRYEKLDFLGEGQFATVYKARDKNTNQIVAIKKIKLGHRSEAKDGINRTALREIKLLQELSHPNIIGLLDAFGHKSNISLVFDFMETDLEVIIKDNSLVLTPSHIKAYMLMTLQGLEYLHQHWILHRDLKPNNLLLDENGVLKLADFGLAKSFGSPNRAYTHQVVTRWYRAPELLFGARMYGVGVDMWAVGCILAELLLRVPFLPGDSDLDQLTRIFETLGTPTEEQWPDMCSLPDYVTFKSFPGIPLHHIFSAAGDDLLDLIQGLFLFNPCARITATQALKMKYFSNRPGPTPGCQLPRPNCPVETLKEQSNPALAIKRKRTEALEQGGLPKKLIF
CDK7/cyclin H, sequence (P51946 whole entry partner, species assumed): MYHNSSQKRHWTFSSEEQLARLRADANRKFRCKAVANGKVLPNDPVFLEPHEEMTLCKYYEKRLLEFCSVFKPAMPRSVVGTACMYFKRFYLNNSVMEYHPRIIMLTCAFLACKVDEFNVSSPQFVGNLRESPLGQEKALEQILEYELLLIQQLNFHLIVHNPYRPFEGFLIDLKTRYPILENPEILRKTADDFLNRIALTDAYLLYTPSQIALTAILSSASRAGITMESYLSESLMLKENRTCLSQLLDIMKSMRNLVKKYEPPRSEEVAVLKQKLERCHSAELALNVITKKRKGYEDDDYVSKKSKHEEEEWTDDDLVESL
How it was run: as §1

GSK3β = GSK3β (Homo sapiens, UniProt P49841); assay: Kinase assay, radioactive phosphate incorporation, GSK3β; format: biochemical; details: 100 μM ATP, 30° C.; read-out: Kinase inhibition IC50 GSK3β
GSK3β, sequence (P49841 whole entry, species assumed): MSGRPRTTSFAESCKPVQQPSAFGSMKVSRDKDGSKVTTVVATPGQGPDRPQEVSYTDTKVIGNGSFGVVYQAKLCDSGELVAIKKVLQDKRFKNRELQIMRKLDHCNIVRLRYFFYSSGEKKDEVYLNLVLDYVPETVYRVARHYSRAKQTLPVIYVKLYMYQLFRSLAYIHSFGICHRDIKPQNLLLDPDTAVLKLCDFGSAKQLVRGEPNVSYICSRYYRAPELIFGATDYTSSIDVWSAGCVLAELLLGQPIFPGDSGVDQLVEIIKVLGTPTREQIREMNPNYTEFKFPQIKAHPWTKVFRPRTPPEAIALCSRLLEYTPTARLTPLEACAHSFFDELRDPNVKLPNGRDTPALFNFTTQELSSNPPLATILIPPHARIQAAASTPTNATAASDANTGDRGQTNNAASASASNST
How it was run: as §1

CDK2/cyclin E = CDK2/cyclin E (Homo sapiens, UniProt P24941); assay: Kinase assay, radioactive phosphate incorporation, CDK2/cyclin E; format: biochemical; details: 100 μM ATP, 30° C.; read-out: Kinase inhibition IC50 CDK2/cyclin E
How it was run: as §1

Aurora-A = biological target: T1, Aurora-A (Homo sapiens, UniProt O14965); assay: Kinase assay, radioactive phosphate incorporation, Aurora-A; format: biochemical; details: 100 μM ATP, 30° C.; read-out: Kinase inhibition IC50 Aurora-A
T1 sequence (O14965 1-403): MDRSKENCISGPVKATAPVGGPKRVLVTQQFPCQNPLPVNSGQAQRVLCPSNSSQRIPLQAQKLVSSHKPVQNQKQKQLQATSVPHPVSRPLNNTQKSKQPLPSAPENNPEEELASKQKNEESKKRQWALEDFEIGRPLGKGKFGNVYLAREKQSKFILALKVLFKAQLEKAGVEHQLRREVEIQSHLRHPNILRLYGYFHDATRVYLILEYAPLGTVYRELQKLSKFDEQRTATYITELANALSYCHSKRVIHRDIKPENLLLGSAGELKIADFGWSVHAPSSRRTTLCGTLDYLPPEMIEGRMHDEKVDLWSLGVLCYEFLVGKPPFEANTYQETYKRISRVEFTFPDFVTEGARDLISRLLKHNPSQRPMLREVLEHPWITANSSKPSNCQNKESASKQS
Experimental: The compounds from the examples above were investigated for their ability to inhibit the enzymatic activity of various protein kinases. This was achieved by measurement of incorporation of radioactive phosphate from ATP into appropriate polypeptide substrates. Recombinant protein kinases and kinase complexes were produced or obtained commercially. Assays were performed using 96-well plates and appropriate assay buffers (typically 25 mM β-glycerophosphate, 20 mM MOPS, 5 MM EGTA, 1 mM DTT, 1 mM Na3VO3, pH 7.4), into which were added 2-4 μg of active enzyme with appropriate substrates. The reactions were initiated by addition of Mg/ATP mix (15 mM MgCl2+100 μM ATP with 30-50 kBq per well of [γ-^32P]-ATP) and mixtures incubated as required at 30° C. Reactions were stopped on ice, followed by filtration through p81 filterplates or GF/C filterplates (Whatman Polyfiltronics, Kent, UK). After washing 3 times with 75 mM aq orthophosphoric acid, plates were dried, scintillant added and incorporated radioactivity measured in a scintillation counter (TopCount, Packard Instruments, Pangbourne, Berks, UK). Compounds for kinase assay were made up as 10 mM stocks in DMSO and diluted into 10% DMSO in assay buffer.

CDK4/cyclin D1 = CDK4/cyclin D1 (Homo sapiens, UniProt P11802); assay: Kinase assay, radioactive phosphate incorporation, CDK4/cyclin D1; format: biochemical; details: 100 μM ATP, 30° C.; read-out: Kinase inhibition IC50 CDK4/cyclin D1
CDK4/cyclin D1, sequence (P11802 whole entry, species assumed): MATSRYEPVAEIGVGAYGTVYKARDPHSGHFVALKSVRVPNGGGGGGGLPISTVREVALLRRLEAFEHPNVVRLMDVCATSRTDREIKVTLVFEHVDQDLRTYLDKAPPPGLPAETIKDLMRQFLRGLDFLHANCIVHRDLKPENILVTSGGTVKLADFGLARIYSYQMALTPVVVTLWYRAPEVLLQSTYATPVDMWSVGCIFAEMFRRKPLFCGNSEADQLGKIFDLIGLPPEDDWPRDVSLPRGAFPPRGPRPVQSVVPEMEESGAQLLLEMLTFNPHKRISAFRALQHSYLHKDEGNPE
CDK4/cyclin D1, sequence (P24385 whole entry partner, species assumed): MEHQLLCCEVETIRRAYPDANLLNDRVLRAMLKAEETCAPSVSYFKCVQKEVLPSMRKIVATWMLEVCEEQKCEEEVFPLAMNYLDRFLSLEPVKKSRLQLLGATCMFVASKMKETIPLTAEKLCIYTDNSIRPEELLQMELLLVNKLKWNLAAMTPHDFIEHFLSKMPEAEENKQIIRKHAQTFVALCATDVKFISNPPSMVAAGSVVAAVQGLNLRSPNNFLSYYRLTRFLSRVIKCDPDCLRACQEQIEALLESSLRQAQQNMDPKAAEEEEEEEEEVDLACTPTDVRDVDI
How it was run: as §1

CDK9/cyclin T1 = CDK9/cyclin T1 (Homo sapiens, UniProt P50750); assay: Kinase assay, radioactive phosphate incorporation, CDK9/cyclin T1; format: biochemical; details: 100 μM ATP, 30° C.; read-out: Kinase inhibition IC50 CDK9/cyclin T1
CDK9/cyclin T1, sequence (P50750 whole entry, species assumed): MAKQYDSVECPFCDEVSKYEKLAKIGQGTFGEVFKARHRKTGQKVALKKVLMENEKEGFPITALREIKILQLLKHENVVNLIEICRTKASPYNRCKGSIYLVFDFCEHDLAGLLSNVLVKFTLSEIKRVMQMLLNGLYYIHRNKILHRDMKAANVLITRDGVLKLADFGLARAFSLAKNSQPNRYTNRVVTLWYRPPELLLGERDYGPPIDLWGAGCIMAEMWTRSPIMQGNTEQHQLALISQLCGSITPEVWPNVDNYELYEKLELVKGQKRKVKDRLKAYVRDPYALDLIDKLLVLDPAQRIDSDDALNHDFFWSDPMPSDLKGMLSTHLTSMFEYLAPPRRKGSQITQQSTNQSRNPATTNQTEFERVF
CDK9/cyclin T1, sequence (O60563 whole entry partner, species assumed): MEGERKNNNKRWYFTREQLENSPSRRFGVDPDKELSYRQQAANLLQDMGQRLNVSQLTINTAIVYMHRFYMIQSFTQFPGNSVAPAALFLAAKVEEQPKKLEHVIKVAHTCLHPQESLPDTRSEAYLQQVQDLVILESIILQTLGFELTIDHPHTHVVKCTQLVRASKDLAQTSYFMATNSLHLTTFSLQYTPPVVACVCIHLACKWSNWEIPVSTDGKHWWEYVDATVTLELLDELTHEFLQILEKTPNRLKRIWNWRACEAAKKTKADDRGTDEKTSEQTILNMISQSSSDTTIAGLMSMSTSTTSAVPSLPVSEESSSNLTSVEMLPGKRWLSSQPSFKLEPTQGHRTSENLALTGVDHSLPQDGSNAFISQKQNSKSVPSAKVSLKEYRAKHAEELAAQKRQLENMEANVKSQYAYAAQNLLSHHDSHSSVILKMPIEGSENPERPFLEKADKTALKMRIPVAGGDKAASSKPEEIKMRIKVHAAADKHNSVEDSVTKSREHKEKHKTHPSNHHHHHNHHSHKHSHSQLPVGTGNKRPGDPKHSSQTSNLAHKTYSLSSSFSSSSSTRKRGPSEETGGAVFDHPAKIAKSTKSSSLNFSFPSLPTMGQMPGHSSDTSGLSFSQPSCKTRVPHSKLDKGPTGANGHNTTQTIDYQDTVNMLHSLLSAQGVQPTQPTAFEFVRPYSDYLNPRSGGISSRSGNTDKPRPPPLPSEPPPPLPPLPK
How it was run: as §1

CDK2/cyclin A = CDK2/cyclin A (Homo sapiens, UniProt P24941); assay: Kinase assay, radioactive phosphate incorporation, CDK2/cyclin A; format: biochemical; details: 100 μM ATP, 30° C.; read-out: Kinase inhibition IC50 CDK2/cyclin A
How it was run: as §1

Saos-2 = assay: 72-h MTT cytotoxicity assay, Saos-2; format: cell-based; details: Homo sapiens, read-out: 72-h MTT IC50 Saos-2, Saos-2 cell line
How it was run: (§2)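 Triplicate cultures, plated by doubling time, are treated 72 h at 37° C with compounds diluted 1/3 stepwise; after PBS washing, MTT (stock 5 mg/mL) is applied 4 h without light, then DMSO dissolves the formazan.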

A549 = assay: 72-h MTT cytotoxicity assay, A549; format: cell-based; details: Homo sapiens, read-out: 72-h MTT IC50 A549, A549 cell line
How it was run: as §2

[1] = tested on: transformed human cell lines (A549, HT29, Saos-2); assay: 72-h MTT cytotoxicity assay, average of cell lines; format: cell-based; details: read-out: 72-h MTT IC50 Average, average of A549, HT29, Saos-2
How it was run: as §2

HT29 = assay: 72-h MTT cytotoxicity assay, HT29; format: cell-based; details: Homo sapiens, HT-29, read-out: 72-h MTT IC50 HT29, HT29 cell line
How it was run: as §2

CDK1/cyclin B, sequence (P06493 whole entry, species assumed): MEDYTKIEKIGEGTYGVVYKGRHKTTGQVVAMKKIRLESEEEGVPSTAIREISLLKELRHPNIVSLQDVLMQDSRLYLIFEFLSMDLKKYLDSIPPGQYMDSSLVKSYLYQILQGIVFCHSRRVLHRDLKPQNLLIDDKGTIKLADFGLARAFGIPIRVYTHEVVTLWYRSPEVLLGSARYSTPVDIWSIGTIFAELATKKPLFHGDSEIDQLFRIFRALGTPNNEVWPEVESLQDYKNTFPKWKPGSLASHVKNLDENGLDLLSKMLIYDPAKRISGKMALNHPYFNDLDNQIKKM
CDK1/cyclin B, sequence (P14635 whole entry partner, species assumed): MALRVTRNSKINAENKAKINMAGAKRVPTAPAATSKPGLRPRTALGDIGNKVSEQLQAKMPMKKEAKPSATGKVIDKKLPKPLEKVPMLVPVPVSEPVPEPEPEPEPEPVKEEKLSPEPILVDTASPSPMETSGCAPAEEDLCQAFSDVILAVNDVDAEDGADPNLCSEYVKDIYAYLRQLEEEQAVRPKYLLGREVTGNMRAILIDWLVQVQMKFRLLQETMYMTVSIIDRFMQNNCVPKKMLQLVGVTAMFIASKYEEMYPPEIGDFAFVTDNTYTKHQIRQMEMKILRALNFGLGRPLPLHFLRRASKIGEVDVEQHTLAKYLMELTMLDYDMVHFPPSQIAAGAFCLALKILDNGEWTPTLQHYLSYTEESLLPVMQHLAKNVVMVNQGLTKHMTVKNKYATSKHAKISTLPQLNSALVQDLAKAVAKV

IC50 (CDK1/cyclin B)	IC50 (CDK7/cyclin H)	IC50 (GSK3β)	IC50 (CDK2/cyclin E)	IC50 (Aurora-A)	IC50 (CDK4/cyclin D1)	IC50 (CDK9/cyclin T1)	IC50 (CDK2/cyclin A)	SMILES	IC50 (Saos-2)	IC50 (A549)	IC50 [1]	IC50 (HT29)
2100 nM	1400 nM	130 nM	180 nM	140 nM	2500 nM	10 nM	450 nM	CN(c1cccc(-c2ccnc(Nc3ccc(O)cc3)n2)c1)S(C)(=O)=O [Compound 131, N-{3-[2-(4-Hydroxy-phenylamino)-pyrimidin-4-yl]-phenyl}-N-methyl-methanesulfonamide]				
1200 nM	180 nM	40 nM	200 nM	1000 nM	3800 nM	1 nM	1700 nM	NC(=O)C1CCCN(Cc2cccc(-c3ccnc(Nc4cccc([N+](=O)[O-])c4)n3)c2)C1 (centres unmarked) [Compound 99, 1-{3-[2-(3-Nitro-phenylamino)-pyrimidin-4-yl]-benzyl}-piperidine-3-carboxylic acid amide]	4100 nM	3000 nM	3200 ± 800 nM	2600 nM
20 nM	90 nM	20 nM	60 nM	570 nM	3200 nM	4 nM	20 nM	CCN(CC)Cc1cccc(-c2ccnc(Nc3cccc([N+](=O)[O-])c3)n2)c1 [Compound 84, [4-(3-Diethylaminomethyl-phenyl)-pyrimidin-2-yl]-(3-nitro-phenyl)-amine]				
960 nM	1300 nM	50 nM	220 nM	120 nM	1300 nM	4 nM	620 nM	CN(c1cccc(-c2ccnc(Nc3cccc(O)c3)n2)c1)S(C)(=O)=O [Compound 130, N-{3-[2-(3-Hydroxy-phenylamino)-pyrimidin-4-yl]-phenyl}-N-methyl-methanesulfonamide]				
1 nM	120 nM	10 nM	10 nM	50 nM	10 nM	< 1 nM	< 1 nM	COc1ccc(-c2ccnc(Nc3cccc(O)c3)n2)cc1 [Compound 76, 3-[4-(4-Methoxy-phenyl)-pyrimidin-2-ylamino]-phenol]				
830 nM	650 nM	130 nM	70 nM	270 nM	2600 nM	20 nM	440 nM	CN(c1cccc(-c2ccnc(Nc3cccc([N+](=O)[O-])c3)n2)c1)S(C)(=O)=O [Compound 129, N-Methyl-N-{3-[2-(3-nitro-phenylamino)-pyrimidin-4-yl]-phenyl}-methanesulfonamide]				
1200 nM	80 nM	10 nM	70 nM	2600 nM	1900 nM	10 nM	350 nM	O=[N+]([O-])c1cccc(Nc2nccc(-c3cccc(CN4CCCC(CO)C4)c3)n2)c1 (centres unmarked) [Compound 105, (1-{3-[2-(3-Nitro-phenylamino)-pyrimidin-4-yl]-benzyl}-piperidin-3-yl)-methanol]				
1100 nM	2900 nM	2300 nM	660 nM	400 nM	4600 nM	330 nM	1500 nM	CN(C)Cc1cccc(-c2ccnc(Nc3ccc(N4CCOCC4)cc3)n2)c1 [Compound 82, [4-(3-Dimethylaminomethyl-phenyl)-pyrimidin-2-yl]-(4-morpholin-4-yl-phenyl)-amine]	6600 nM	6200 nM	5800 ± 1100 nM	4500 nM
590 nM	550 nM	0.7 nM	60 nM	160 nM	870 nM	0.1 nM	470 nM	O=[N+]([O-])c1cccc(Nc2nccc(-c3cccc(CO)c3)n2)c1 [Compound 91, {3-[2-(3-Nitro-phenylamino)-pyrimidin-4-yl]-phenyl}-methanol]				
